The values below are quoted from earlier work in patent publication US9756853B2, “Solid pesticidal formulation” (priority 2013, dated 2017).

In brackets after ≈: the same amount, converted by molar mass.

The conditions of this data set: 20° C.

In the case of `CN/C(=N/CC1CCOC1)N[N+](=O)[O-]` (stereo not shown) [dinotefuran], the solubility in water is 40 mg/mL (≈ 198 mM).
